These results are taken from ChEMBL document CHEMBL3232730, “Design, synthesis and bioevaluation of N-trisubstituted pyrimidine derivatives as potent aurora A kinase inhibitors” (Eur J Med Chem, 2014).

pIC50: −log10 of the molar value.

The subject of assay [1] is U-937. Nature of the assay: Antiproliferative activity against human U937 cells assessed as cell viability after 72 hrs by CCK8 assay. Format: functional, cell-based. To be noted: Homo sapiens, U-937, 72 h; read-out: IC50. Background: Tetrazolium assays rely on reduction of a dye to a coloured formazan, in cell work by metabolically active cells.
Assay [2] in a line: Antiproliferative activity against human MOLT4 cells assessed as cell viability after 72 hrs by CCK8 assay. To be noted: Homo sapiens, MOLT-4, 72 h; read-out: IC50. Format: functional, cell-based, MOLT-4.
Assay [3] deals with MCF7. Nature of the assay: Antiproliferative activity against human MCF7 cells assessed as cell viability after 72 hrs by CCK8 assay. Format: functional, cell-based. To be noted: Homo sapiens, MCF7, 72 h; read-out: IC50.
Assay [4] has as its system MDA-MB-231. Nature of the assay: Antiproliferative activity against human MDA-MB-231 cells assessed as cell viability after 72 hrs by CCK8 assay. The class given is functional, cell-based. To be noted: Homo sapiens, MDA-MB-231, 72 h; read-out: IC50.
Assay [5] can be described thus: Antiproliferative activity against human SKBR3 cells assessed as cell viability after 72 hrs by CCK8 assay. The class given is functional, cell-based, SK-BR-3. To be noted: Homo sapiens, SK-BR-3, 72 h; read-out: IC50.
For assay [6], the system named is A549. Nature of the assay: Antiproliferative activity against human A549 cells assessed as cell viability after 72 hrs by CCK8 assay. The class given is functional, cell-based. The note with it: A549, 72 h.
For assay [7], the system named is A-431. Nature of the assay: Antiproliferative activity against human A431 cells assessed as cell viability after 72 hrs by CCK8 assay. The class given is functional, cell-based. To be noted: Homo sapiens, A-431, 72 h; read-out: IC50.
The test system of assay [8] is DU-145. Nature of the assay: Antiproliferative activity against human DU145 cells assessed as cell viability after 72 hrs by CCK8 assay. Format: functional, cell-based. To be noted: Homo sapiens, DU-145, 72 h; read-out: IC50.
For assay [9], the system named is PC-3. Nature of the assay: Antiproliferative activity against human PC3 cells assessed as cell viability after 72 hrs by CCK8 assay. Format: functional, cell-based. To be noted: Homo sapiens, PC-3, 72 h; read-out: IC50.
Assay [10] has as its system HeLa. Nature of the assay: Antiproliferative activity against human HeLa cells assessed as cell viability after 72 hrs by CCK8 assay. Format: functional, cell-based. The note with it: Homo sapiens, HeLa, 72 h; read-out: IC50.
Assay [11] deals with NCI-N87. Nature of the assay: Antiproliferative activity against human NCI-N87 cells assessed as cell viability after 72 hrs by CCK8 assay. The class given is functional, cell-based. To be noted: Homo sapiens, NCI-N87, 72 h; read-out: IC50.
In assay [12] the test system is HCT-116. Nature of the assay: Antiproliferative activity against human HCT116 cells assessed as cell viability after 72 hrs by CCK8 assay. Format: functional, cell-based. To be noted: Homo sapiens, HCT-116, 72 h; read-out: IC50.
Assay [13] can be described thus: Cell cycle arrest in human CNE2 cells assessed as accumulation at G1 phase at 1 uM after 24 hrs by propidium iodide staining-based flow cytometric analysis (reference value: 52.5%). The note with it: CNE-2. Format: functional.
The nature of assay [14]: Cell cycle arrest in human CNE2 cells assessed as accumulation at S phase at 1 uM after 24 hrs by propidium iodide staining-based flow cytometric analysis (reference value: 14.7%). To be noted: CNE-2. The class given is functional.
A short description of assay [15]: Cell cycle arrest in human CNE2 cells assessed as accumulation at G2/M phase at 1 uM after 24 hrs by propidium iodide staining-based flow cytometric analysis (reference value: 38.2%). To be noted: CNE-2. Format: functional.
A short description of assay [16]: Cell cycle arrest in human CNE2 cells assessed as accumulation at polyploid period at 1 uM after 24 hrs by propidium iodide staining-based flow cytometric analysis (reference value: […]). The class given is functional. To be noted: CNE-2. (In flow cytometry, cells or beads pass a laser one at a time.)
The nature of assay [17]: Antiproliferative activity against human PANC1 cells assessed as cell viability after 72 hrs by CCK8 assay. The class given is functional, cell-based. The note with it: PANC-1, 72 h.
In assay [18] the target is T1, Aurora kinase A (Homo sapiens, UniProt O14965).
T1 sequence (O14965 whole entry): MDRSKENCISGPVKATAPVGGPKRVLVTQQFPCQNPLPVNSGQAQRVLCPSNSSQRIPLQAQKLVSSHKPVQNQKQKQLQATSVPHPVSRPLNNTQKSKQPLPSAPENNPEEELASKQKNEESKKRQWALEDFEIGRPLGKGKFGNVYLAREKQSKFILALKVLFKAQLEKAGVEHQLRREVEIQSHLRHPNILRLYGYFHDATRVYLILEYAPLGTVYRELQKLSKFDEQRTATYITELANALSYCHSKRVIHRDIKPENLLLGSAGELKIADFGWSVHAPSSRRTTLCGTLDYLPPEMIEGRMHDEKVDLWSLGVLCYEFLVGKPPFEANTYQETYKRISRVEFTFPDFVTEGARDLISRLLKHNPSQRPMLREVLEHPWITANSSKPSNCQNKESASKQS
Nature of the assay: Inhibition of Aurora A (unknown origin) using FAM-labeled peptide as substrate preincubated for 10 mins followed by substrate addition measured after 60 mins.

The subject of assay [19] is HL-60. Nature of the assay: Antiproliferative activity against human HL60 cells assessed as cell viability after 72 hrs by CCK8 assay. Format: functional, cell-based. The note with it: Homo sapiens, HL-60, 72 h; read-out: IC50.
Assay [20] has as its system K562. Nature of the assay: Antiproliferative activity against human K562 cells assessed as cell viability after 72 hrs by CCK8 assay. To be noted: Homo sapiens, K562, 72 h; read-out: IC50. The class given is functional, cell-based.

One may read the pIC50 as the IC50 on a negative log10 scale, so that one unit is a factor of ten.

For the compound `Cc1cc(Nc2cc(N3CCN(C)CC3)nc(Nc3cccc(Cl)c3)n2)n[nH]1`, the pIC50 is 7.66 in [1]; 7.70 in [2]; 6.36 in assay [3]; 7.25 in assay [4]; 5.64 in assay [5]; 6.14 in assay [6]. Moreover, the pIC50 in assay [7] was 7.06; in [8], 5.51; in assay [9], 6.24; in [10], 6.37; in assay [11] it was 5.75; in [12], 6.13. Moreover, the pIC50 was 6.45 in assay [17], 8.00 in assay [18], 6.88 in [19] and 7.01 in assay [20]. Further, the Activity in assay [13] worked out at 3.3%; in assay [14], 1.7%; in [15], 90.5%; in assay [16] it was 3.9%.

As to `COc1ccccc1Nc1nc(Nc2cc(C)[nH]n2)cc(N2CCN(C)CC2)n1`, the Activity came out at 38.7% in [13], 8.2% in [14], 49% in [15] and 3.7% in [16]. For the same compound, the pIC50 in [18] was 6.70.

On to `COC(=O)c1ccc(Nc2nc(Nc3cc(C)[nH]n3)cc(N3CCN(C)CC3)n2)cc1`, for which the pIC50 in [1] is 6.92; in assay [2] it was 6.79; in assay [3] it was 5.75; in assay [4], 6.44; in assay [5] it was 5.06; in assay [6], 5.74. Moreover, the pIC50 in [7] is 6.27; in assay [8] it was 6.10; in [9] it was 5.82; in [10], 5.90; in [11] it was 4.75; in assay [12] it was 6.17. Besides, the pIC50 in assay [17] was 5.97; in assay [18], 7.34; in assay [19] it was 6.69; in assay [20], 6.44. The Activity was 1.7% in assay [13], 2.2% in [14], 84.3% in assay [15] and 11.2% in assay [16].

With `COC(=O)c1ccc(CNc2nc(Nc3cc(C)[nH]n3)cc(N3CCN(C)CC3)n2)cc1`, the Activity in assay [13] is 55.4%; in assay [14], 6.2%; in assay [15], 35.3%; in [16], 3%. This compound also gave a pIC50 in [18] of 6.90.

With `Cc1cc(Nc2cc(N3CCN(C)CC3)nc(Nc3ccc(C(=O)OC(C)C)cc3)n2)n[nH]1`, the pIC50 in assay [1] was 6.99; in [2], 7.03; in assay [3], 5.88; in assay [4], 6.79; in [5], 5.40; in assay [6] it was 5.91. For the same compound, the pIC50 is 6.36 in assay [7]; 6.30 in [8]; 5.87 in assay [9]; 6.01 in [10]; 5.20 in assay [11]; 5.78 in [12]. Further, the pIC50 in assay [17] is 5.88; in assay [18] it was 7.66; in assay [19] it was 6.74; in assay [20], 6.51. For the same compound, the Activity is 1.9% in [13], 1.7% in assay [14], 89% in assay [15] and 7% in [16].

With `COC(=O)c1ccc(Nc2nc(Nc3cc(C)[nH]n3)cc(N3CCOCC3)n2)cc1`, the pIC50 in assay [1] is 6.35; in assay [2], 6.52; in [3] it was 6.03; in [4], 6.24; in assay [5], 5.50; in [6], 5.80. For the same compound, the pIC50 in [7] is 6.08; in [8], 6.21; in [9] it was 5.96; in assay [10] it was 5.72; in assay [11] it was 5.49; in assay [12], 5.98. In addition, the pIC50 was 5.80 in [17], 7.60 in assay [18], 6.12 in [19] and 6.27 in assay [20]. Besides, the Activity in assay [13] was determined as 52.9%; in assay [14], 7.1%; in [15], 35.7%; in assay [16] it was 4%.

Regarding `COc1ccc(Nc2nc(Nc3cc(C)[nH]n3)cc(N3CCN(C)CC3)n2)cc1`, the pIC50 is 7.03 in assay [1]; 6.94 in assay [2]; 5.56 in assay [3]; 6.61 in [4]; 4.83 in assay [5]; 5.58 in assay [6]. The pIC50 in assay [7] was 6.41; in assay [8], 5.30; in [9], 5.70; in assay [10] it was 6.06; in assay [11], 4.72; in assay [12], 5.65. Moreover, the pIC50 was 5.95 in assay [17], 7.47 in assay [18], 6.47 in assay [19] and 6.57 in [20]. Moreover, the Activity in assay [13] came to 3.4%; in assay [14], 2.2%; in [15] it was 90.6%; in assay [16], 2.4%.

As to `Cc1cc(Nc2cc(N3CCOCC3)nc(Nc3ccc([N+](=O)[O-])cc3)n2)n[nH]1`, the pIC50 in assay [1] is 6.68; in [2], 7.22; in assay [3] it was 5.97; in [4], 6.69; in assay [5], 6.02; in assay [6], 5.98. In addition, the pIC50 is 6.48 in [7]; 6.20 in assay [8]; 6.01 in assay [9]; 6.22 in [10]; 4.76 in assay [11]; 5.59 in [12]. Moreover, the pIC50 in assay [17] was 6.24; in assay [18], 7.96; in assay [19] it was 5.80; in assay [20] it was 6.45.
